# Results reported in ChEMBL document CHEMBL1201862, “PubChem BioAssay data set” (2004).
#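 48-hour exposure; five concentrations; linearly interpolated endpoints. At the GI50, growth is halved.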 The source made the active and inactive calls. Cut-off read from the data, not from the text of the source: active = GI50 up to about 1.1 µM and inactive = higher.
# Tests used:
# Assay in all cases: NCI-60 cell line screen, 48 h
# IGROV-1 = tested on: IGROV-1
# NCI-H522 = tested on: NCI-H522
# OVCAR-3 = tested on: OVCAR-3
# MCF7 = tested on: MCF7
# A549 = tested on: A549
# NCI-H226 = tested on: NCI-H226
# M14 = tested on: M14
# UACC-62 = tested on: UACC-62
# OVCAR-8 = tested on: OVCAR-8
# ACHN = tested on: ACHN
# OVCAR-4 = tested on: OVCAR-4
# MOLT-4 = tested on: MOLT-4
# HCC 2998 = tested on: HCC 2998
# SW-620 = tested on: SW-620
# LOX IMVI = tested on: LOX IMVI
# SF-295 = tested on: SF-295
# MDA-MB-231 = tested on: MDA-MB-231
# RXF 393 = tested on: RXF 393
# MDA-MB-435 = tested on: MDA-MB-435
# U-251 = tested on: U-251
# SR = tested on: SR
# DU-145 = tested on: DU-145
# 786-0 = tested on: 786-0
# BT-549 = tested on: BT-549
# SF-539 = tested on: SF-539
# CAKI-1 = tested on: CAKI-1
# MDA-N = tested on: MDA-N
# UO-31 = tested on: UO-31
# OVCAR-5 = tested on: OVCAR-5
# NCI-H460 = tested on: NCI-H460
# COLO 205 = tested on: COLO 205
# KM12 = tested on: KM12
# NCI-H23 = tested on: NCI-H23
# EKVX = tested on: EKVX
# RPMI-8226 = tested on: RPMI-8226
# SF-268 = tested on: SF-268
# SNB-75 = tested on: SNB-75
# Hs-578T = tested on: Hs-578T
# HCT-116 = tested on: HCT-116
# HOP-62 = tested on: HOP-62
# SK-MEL-5 = tested on: SK-MEL-5
# HCT-15 = tested on: HCT-15
# UACC-257 = tested on: UACC-257
# PC-3 = tested on: PC-3
# T47D = tested on: T47D
# SK-MEL-2 = tested on: SK-MEL-2
# SK-OV-3 = tested on: SK-OV-3
# NCI/ADR-RES = tested on: NCI/ADR-RES
# SNB-19 = tested on: SNB-19
# CCRF-CEM = tested on: CCRF-CEM
# SN12C = tested on: SN12C
# TK-10 = tested on: TK-10
# HT-29 = tested on: HT-29
# K562 = tested on: K562
# SK-MEL-28 = tested on: SK-MEL-28
# A498 = tested on: A498
# HOP-92 = tested on: HOP-92
# HL-60 = tested on: HL-60
# Malme-3M = tested on: Malme-3M
smiles,measurement,setting,value
c1ccc(Nc2nnc(Cn3ccc4ccccc43)s2)cc1,GI50,IGROV-1,46.9 µM (inactive)
same,GI50,NCI-H522,51.8 µM (inactive)
same,GI50,OVCAR-3,24.5 µM (inactive)
same,GI50,MCF7,40.3 µM (inactive)
same,GI50,A549,32.4 µM (inactive)
same,GI50,NCI-H226,58.3 µM (inactive)
same,GI50,M14,59.8 µM (inactive)
same,GI50,UACC-62,88.5 µM (inactive)
same,GI50,OVCAR-8,64.6 µM (inactive)
same,GI50,ACHN,39.8 µM (inactive)
same,GI50,OVCAR-4,36.8 µM (inactive)
same,GI50,MOLT-4,23.1 µM (inactive)
same,GI50,HCC 2998,> 100 µM (inactive)
same,GI50,SW-620,87.3 µM (inactive)
same,GI50,LOX IMVI,56 µM (inactive)
same,GI50,SF-295,15.9 µM (inactive)
same,GI50,MDA-MB-231,38.3 µM (inactive)
same,GI50,RXF 393,73.5 µM (inactive)
same,GI50,MDA-MB-435,83.2 µM (inactive)
same,GI50,U-251,42.4 µM (inactive)
same,GI50,SR,12.8 µM (inactive)
same,GI50,DU-145,92.9 µM (inactive)
same,GI50,786-0,52.7 µM (inactive)
same,GI50,BT-549,> 100 µM (inactive)
same,GI50,SF-539,35.6 µM (inactive)
same,GI50,CAKI-1,22.4 µM (inactive)
same,GI50,MDA-N,> 100 µM (inactive)
same,GI50,UO-31,36.4 µM (inactive)
same,GI50,OVCAR-5,> 100 µM (inactive)
same,GI50,NCI-H460,47 µM (inactive)
same,GI50,COLO 205,45.1 µM (inactive)
same,GI50,KM12,34.5 µM (inactive)
same,GI50,NCI-H23,> 100 µM (inactive)
same,GI50,EKVX,50.8 µM (inactive)
same,GI50,RPMI-8226,48.5 µM (inactive)
same,GI50,SF-268,56.8 µM (inactive)
same,GI50,SNB-75,20.9 µM (inactive)
same,GI50,Hs-578T,65.6 µM (inactive)
same,GI50,HCT-116,42.7 µM (inactive)
same,GI50,HOP-62,29.9 µM (inactive)
same,GI50,SK-MEL-5,57.4 µM (inactive)
same,GI50,HCT-15,38.5 µM
same,GI50,UACC-257,> 100 µM (inactive)
same,GI50,PC-3,19.2 µM (inactive)
same,GI50,T47D,27.7 µM (inactive)
same,GI50,SK-MEL-2,> 100 µM (inactive)
same,GI50,SK-OV-3,> 100 µM (inactive)
same,GI50,NCI/ADR-RES,34.6 µM (inactive)
same,GI50,SNB-19,60 µM (inactive)
same,GI50,CCRF-CEM,49.3 µM (inactive)
same,GI50,SN12C,> 100 µM (inactive)
same,GI50,TK-10,76.6 µM (inactive)
same,GI50,HT-29,57 µM (inactive)
same,GI50,K562,31.2 µM (inactive)
same,GI50,SK-MEL-28,80.5 µM (inactive)
same,GI50,A498,> 100 µM (inactive)
same,GI50,HOP-92,54.7 µM (inactive)
Cc1nn(C(=O)c2ccc(Cl)cc2)c2c1C(c1ccco1)SC(=N)N2 (stereo unspecified),GI50,IGROV-1,> 10 µM (inactive)
same,GI50,NCI-H522,> 10 µM (inactive)
same,GI50,OVCAR-3,> 10 µM (inactive)
same,GI50,MCF7,> 10 µM (inactive)
same,GI50,A549,> 10 µM (inactive)
same,GI50,NCI-H226,> 10 µM (inactive)
same,GI50,M14,> 10 µM (inactive)
same,GI50,UACC-62,> 10 µM (inactive)
same,GI50,OVCAR-8,> 10 µM (inactive)
same,GI50,ACHN,> 10 µM (inactive)
same,GI50,OVCAR-4,> 10 µM (inactive)
same,GI50,MOLT-4,> 10 µM (inactive)
same,GI50,HCC 2998,> 10 µM (inactive)
same,GI50,SW-620,> 10 µM (inactive)
same,GI50,LOX IMVI,> 10 µM (inactive)
same,GI50,SF-295,> 10 µM (inactive)
same,GI50,MDA-MB-231,> 10 µM (inactive)
same,GI50,RXF 393,> 10 µM (inactive)
same,GI50,MDA-MB-435,> 10 µM (inactive)
same,GI50,U-251,> 10 µM (inactive)
same,GI50,SR,> 10 µM (inactive)
same,GI50,DU-145,> 10 µM (inactive)
same,GI50,786-0,> 10 µM (inactive)
same,GI50,BT-549,> 10 µM (inactive)
same,GI50,SF-539,> 10 µM (inactive)
same,GI50,CAKI-1,> 10 µM (inactive)
same,GI50,MDA-N,> 10 µM (inactive)
same,GI50,OVCAR-5,> 10 µM (inactive)
same,GI50,NCI-H460,> 10 µM (inactive)
same,GI50,COLO 205,> 10 µM (inactive)
same,GI50,KM12,> 10 µM (inactive)
same,GI50,NCI-H23,> 10 µM (inactive)
same,GI50,EKVX,> 10 µM (inactive)
same,GI50,RPMI-8226,> 10 µM (inactive)
same,GI50,SF-268,> 10 µM (inactive)
same,GI50,SNB-75,> 10 µM (inactive)
same,GI50,Hs-578T,> 10 µM (inactive)
same,GI50,HCT-116,> 10 µM (inactive)
same,GI50,HOP-62,> 10 µM (inactive)
same,GI50,SK-MEL-5,> 10 µM (inactive)
same,GI50,HCT-15,> 10 µM
same,GI50,UACC-257,> 10 µM (inactive)
same,GI50,PC-3,> 10 µM (inactive)
same,GI50,T47D,> 10 µM (inactive)
same,GI50,SK-MEL-2,> 10 µM (inactive)
same,GI50,SK-OV-3,> 10 µM (inactive)
same,GI50,NCI/ADR-RES,> 10 µM (inactive)
same,GI50,SNB-19,> 10 µM (inactive)
same,GI50,CCRF-CEM,> 10 µM (inactive)
same,GI50,SN12C,> 10 µM (inactive)
same,GI50,TK-10,> 10 µM (inactive)
same,GI50,HT-29,> 10 µM (inactive)
same,GI50,K562,> 10 µM (inactive)
same,GI50,SK-MEL-28,> 10 µM (inactive)
same,GI50,HL-60,> 10 µM (inactive)
same,GI50,HOP-92,> 10 µM (inactive)
CNc1ncnc2c1cnn2COCC(O)CO (stereo unspecified),GI50,Malme-3M,> 100 µM (inactive)
same,GI50,IGROV-1,> 100 µM (inactive)
same,GI50,NCI-H522,> 100 µM (inactive)
same,GI50,OVCAR-3,> 100 µM (inactive)
same,GI50,MCF7,> 100 µM (inactive)
same,GI50,A549,> 100 µM (inactive)
same,GI50,NCI-H226,> 100 µM (inactive)
same,GI50,M14,> 100 µM (inactive)
same,GI50,UACC-62,> 100 µM (inactive)
same,GI50,OVCAR-8,> 100 µM (inactive)
same,GI50,ACHN,> 100 µM (inactive)
same,GI50,OVCAR-4,> 100 µM (inactive)
same,GI50,MOLT-4,> 100 µM (inactive)
same,GI50,HCC 2998,> 100 µM (inactive)
same,GI50,SW-620,> 100 µM (inactive)
same,GI50,LOX IMVI,> 100 µM (inactive)
same,GI50,SF-295,> 100 µM (inactive)
same,GI50,MDA-MB-231,> 100 µM (inactive)
same,GI50,RXF 393,> 100 µM (inactive)
same,GI50,MDA-MB-435,> 100 µM (inactive)
same,GI50,U-251,> 100 µM (inactive)
same,GI50,SR,> 100 µM (inactive)
same,GI50,DU-145,> 100 µM (inactive)
same,GI50,786-0,> 100 µM (inactive)
same,GI50,BT-549,> 100 µM (inactive)
same,GI50,SF-539,> 100 µM (inactive)
same,GI50,CAKI-1,> 100 µM (inactive)
same,GI50,MDA-N,> 100 µM (inactive)
same,GI50,UO-31,> 100 µM (inactive)
same,GI50,OVCAR-5,> 100 µM (inactive)
same,GI50,NCI-H460,> 100 µM (inactive)
same,GI50,COLO 205,> 100 µM (inactive)
same,GI50,KM12,> 100 µM (inactive)
same,GI50,NCI-H23,> 100 µM (inactive)
same,GI50,EKVX,> 100 µM (inactive)
same,GI50,RPMI-8226,> 100 µM (inactive)
same,GI50,SF-268,> 100 µM (inactive)
same,GI50,SNB-75,> 100 µM (inactive)
same,GI50,Hs-578T,> 100 µM (inactive)
same,GI50,HCT-116,> 100 µM (inactive)
same,GI50,HOP-62,> 100 µM (inactive)
same,GI50,SK-MEL-5,> 100 µM (inactive)
same,GI50,HCT-15,> 100 µM
same,GI50,UACC-257,> 100 µM (inactive)
same,GI50,PC-3,> 100 µM (inactive)
same,GI50,T47D,> 100 µM (inactive)
same,GI50,SK-MEL-2,> 100 µM (inactive)
same,GI50,SK-OV-3,> 100 µM (inactive)
same,GI50,NCI/ADR-RES,> 100 µM (inactive)
same,GI50,SNB-19,> 100 µM (inactive)
same,GI50,CCRF-CEM,> 100 µM (inactive)
same,GI50,SN12C,> 100 µM (inactive)
same,GI50,TK-10,> 100 µM (inactive)
same,GI50,HT-29,> 100 µM (inactive)
same,GI50,K562,> 100 µM (inactive)
same,GI50,SK-MEL-28,> 100 µM (inactive)
same,GI50,A498,> 100 µM (inactive)
same,GI50,HOP-92,> 100 µM (inactive)
